Consider one compound from ChEMBL document CHEMBL1137525, “Additional level of information about complex interaction between non-nucleoside inhibitor and HIV-1 reverse transcriptase using biosensor-based thermodynamic analysis” (Bioorg Med Chem, 2007).

Experiment [1] addresses T1, Human immunodeficiency virus type 1 reverse transcriptase (Human immunodeficiency virus 1, UniProt Q72547, K103N). As to the kind of experiment: Binding affinity to HIV1 reverse transcriptase K103N mutant at 35 degC.
In experiment [2] the target is T2, Human immunodeficiency virus type 1 reverse transcriptase (Human immunodeficiency virus 1, UniProt Q72547, Y181C). The experiment can be described thus: Binding affinity to HIV1 reverse transcriptase Y181C mutant at 5 degC.
Experiment [3] deals with T1, Human immunodeficiency virus type 1 reverse transcriptase. The experiment can be described thus: Binding affinity to HIV1 reverse transcriptase K103N mutant at 5 degC.
For experiment [4] the target is unchanged. As to the kind of experiment: Binding affinity to HIV1 reverse transcriptase K103N mutant at 25 degC.
Experiment [5] shares this target. As to the kind of experiment: Binding affinity to HIV1 reverse transcriptase K103N mutant at 15 degC.
Experiment [6] addresses T2, Human immunodeficiency virus type 1 reverse transcriptase. The experiment can be described thus: Binding affinity to HIV1 reverse transcriptase Y181C mutant at 15 degC.
Experiment [7] has the same target. As to the kind of experiment: Binding affinity to HIV1 reverse transcriptase Y181C mutant at 25 degC.
The target is the same in experiment [8]. As to the kind of experiment: Binding affinity to HIV1 reverse transcriptase Y181C mutant at 35 degC.

By Kd is commonly meant the free concentration of one partner at which half of the binding sites on the other are occupied at equilibrium, for simple one-to-one binding. A high value points to a looser complex. Regarding `CCC(=O)c1ccc(F)c([C@@H]2C[C@@H]2NC(=O)Nc2ccc(C#N)cn2)c1O`, the Kd in experiment [1] amounted to 3.49 nM; in experiment [2], 0.627 nM; in experiment [3], 0.596 nM; in experiment [4], 4.91 nM; in experiment [5], 0.997 nM; in experiment [6], 0.79 nM. Moreover, the values for the Kd in experiment [7] and in experiment [8] were 1.5 nM and 2.89 nM, respectively.
